Experiment in all cases: NCI-60 cell line screen, 48 h
Assay [1] concerns HCT-15 colon.
In assay [2] the test system is UACC-257 melanoma.
Assay [3] concerns OVCAR-4 ovarian.
Assay [4] concerns KM12 colon.
For assay [5], the system named is OVCAR-3 ovarian.
Assay [6] has as its system TK-10 renal.
For assay [7], the system named is SK-OV-3 ovarian.
The subject of assay [8] is UACC-62 melanoma.
The subject of assay [9] is SF-539 CNS.
For assay [10], the system named is LOX IMVI melanoma.
Assay [11] has as its system A549 NSCLC.
The test system of assay [12] is OVCAR-8 ovarian.
Assay [13] has as its system NCI-H460 lung.
Assay [14] has as its system IGROV1 ovarian.
In assay [15] the test system is NCI-H522 lung.

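Assay format: 96-well plates, 48-hour exposure. TGI denotes the concentration required for complete inhibition of growth.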 Where only a bound is given, the exact number is not on record here.

Turning to `CN(C)/C(N)=N/C(N)=Nc1cccc(Cl)c1`, the TGI in assay [1], in [2], in assay [3], in assay [4], in assay [5] and in assay [6] was above 100 µM in each case. Further, the TGI in assay [7], in assay [8], in assay [9], in assay [10], in [11] and in assay [12] was above 100 µM throughout. The TGI was above 100 µM in [13] and 77.9 µM in assay [14].

`O=C(O)c1nc2cc(C(F)(F)F)ccc2nc1Nc1ccc(Cl)c(Cl)c1`: the TGI in assay [1] was 24.8 µM; in assay [2], 64.5 µM; in assay [3], 65.9 µM; in assay [4], 26.2 µM; in [5] it was 26.4 µM; in assay [6] it was 37.1 µM. The TGI in assay [7] worked out at 30.7 µM; in assay [8] it was 25 µM; in assay [9], 23.7 µM; in [10], 31.2 µM; in assay [11] it was 21.8 µM; in assay [12], 26 µM. Moreover, the TGI in assay [13] worked out at 26.3 µM; in assay [14], 39.3 µM; in assay [15], 31.4 µM.

As for `C=C[C@@]1(C)CCC2(O)C(CCC3C2(C)CCC[C@@]3(C)COC(=O)CC(=O)OC)C1` (stereo partly drawn), the TGI in assay [1] was found to be 34.9 µM; in assay [2], 36.5 µM; in assay [3] it was 33.3 µM; in assay [4], 32.6 µM; in assay [5], 32.5 µM; in assay [6] it was 73.3 µM. Also, the TGI in assay [7] is above 100 µM; in assay [8], 32.3 µM; in [9] it was 36.1 µM; in [10] it was 31.1 µM; in assay [11], 35.9 µM; in assay [12] it was 55 µM. For the same compound, the values for the TGI in assay [13], in [14] and in assay [15] were above 100 µM, 71.7 µM and 32.4 µM, respectively.

As to `O=S(=O)(C(=Ic1ccccc1)S(=O)(=O)C(F)(F)C(F)(F)C(F)(F)C(F)(F)F)C(F)(F)C(F)(F)C(F)(F)C(F)(F)F`, the TGI was 33.7 µM in assay [1]; 32.8 µM in assay [2]; 14.7 µM in [3]; 41.7 µM in assay [4]; 29.3 µM in [5]; 29.9 µM in assay [6]. In addition, the TGI in assay [7] came out at 30.4 µM; in assay [8], 33.4 µM; in assay [9] it was 28.8 µM; in [10], 28 µM; in [11], 34.3 µM; in assay [13] it was 32.2 µM. For the same compound, the results for the TGI in [14] and in assay [15] were 36.9 µM and 6.09 µM, respectively.

As for `COc1ccc(-c2cnoc2-c2ccc(OC)c(OC)c2)cc1OC`, the TGI is 9.01 µM in [1]; above 100 µM in assay [2]; above 100 µM in assay [3]; 16.9 µM in [4]; 7.54 µM in assay [5]; 43.2 µM in [6]. For the same compound, the TGI was 5.41 µM in assay [7]; 1.78 µM in assay [8]; 3.3 µM in [9]; 5.22 µM in assay [10]; above 44.8 µM in assay [11]; 40.9 µM in assay [12]. Further, the TGI in [13] amounted to 19.8 µM; in [14] it was 9.53 µM; in [15], 2.1 µM.

Turning to `CC12CCC([C@H](N3CCOCC3)/C1=N\OCCN1CCCC1)C2(C)C` (stereo partly drawn), the TGI in assay [1], in assay [2], in [3], in [4], in assay [5] and in assay [6] was above 100 µM throughout. The TGI in [7], in assay [8], in assay [9], in [10], in assay [11] and in [12] was above 100 µM each time. For the same compound, the TGI in assay [13], in [14] and in assay [15] was above 100 µM throughout.

Regarding `O=C(C/C(=N\NC(=O)C[n+]1ccccc1)C(=O)Nc1nc2ccc([N+](=O)[O-])cc2s1)CC(c1ccccc1)c1c(O)c2ccccc2oc1=O` (stereo not drawn), the TGI in [2], in assay [3], in [4], in assay [5], in assay [6] and in assay [7] was above 100 µM each time. In addition, the TGI in assay [8], in [9], in assay [11], in assay [12], in assay [13] and in [14] was above 100 µM in each case. The compound also returned a TGI in assay [15] above 100 µM.

For `C=CCC1C(=O)C(C(=O)OC)N2CCc3c([nH]c4ccccc34)C12` (stereo not drawn), the TGI in assay [1], in assay [3], in [4], in [5], in assay [6] and in assay [7] was above 100 µM each time. In addition, the TGI in assay [8], in [9], in assay [11], in [12], in assay [14] and in [15] was above 100 µM in each case.

In the case of `CC(=O)OCCOCNC(=S)N/N=C/c1ccc2ccccc2n1`, the TGI in [1], in assay [2], in [3], in assay [4], in assay [5] and in [6] was above 100 µM in each case. Moreover, the TGI in assay [7] is above 100 µM; in assay [8], 47.6 µM; in [9] it was above 100 µM; in [10], above 100 µM; in assay [11], above 100 µM; in assay [12], above 100 µM. In addition, the TGI was above 100 µM in assay [13], above 100 µM in [14] and 62.7 µM in assay [15].
